Patent EP0391180A2, “Peptide derivatives of amino acids having a renin-inhibiting effect” (F. HOFFMANN-LA ROCHE AG, priority 1989, dated 1990)

Each compound was assayed against T1, Human-Renin (Homo sapiens, UniProt P00797) (assay: In vitro test with pure human renin (angiotensin I production from human tetradecapeptide renin substrate, measured by RIA)). Settings: not given.
T1 sequence (P00797 67-406): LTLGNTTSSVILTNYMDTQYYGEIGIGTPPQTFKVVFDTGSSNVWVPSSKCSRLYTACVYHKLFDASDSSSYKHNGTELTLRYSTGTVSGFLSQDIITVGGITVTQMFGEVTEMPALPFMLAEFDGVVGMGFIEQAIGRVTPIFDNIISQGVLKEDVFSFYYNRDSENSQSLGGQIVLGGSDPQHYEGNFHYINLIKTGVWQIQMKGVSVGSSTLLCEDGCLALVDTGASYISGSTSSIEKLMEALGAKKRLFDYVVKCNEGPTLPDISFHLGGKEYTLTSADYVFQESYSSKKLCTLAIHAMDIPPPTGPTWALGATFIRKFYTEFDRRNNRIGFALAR
Assay type: biochemical
Description: In vitro-Test mit reinem Human-Renin
Der Test wird in Eppendorf Röhrchen durchgeführt. Die Inkubationsmischung besteht aus (1) 100 µl Human-Renin in Puffer A (0,1M Natriumphosphatlösung, pH 7,4, enthaltend 0,1% Rinderserumalbumin, 0,1 % Natriumazid und 1 mM Aethylendiamintetraessigsäure), genügend für eine Renin-Aktivität von 2-3 ng Angiotensin I/ ml/Std.; (2) 145 µl Puffer A; (3) 30 µl von 10 µM humanem Tetradekapeptid-Reninsubstrat (hTD) in 10 mM Salzsäure; (4) 15 µl Dimethylsulfoxid mit bzw. ohne Hemmer und (5) 10 µl einer 0,03 molaren Lösung von Hydroxychinolinsulfat in Wasser.
Die Proben werden drei Stunden bei 37°C bzw. 4°C in Triplikaten inkubiert. 2 x 100 µl Proben pro Versuchsröhrchen werden dann verwendet, um die Produktion von Angiotensin I via RIA (standard radioimmunoassay; Clinical Assay solid phase kit) zu messen. Kreuzreaktivitäten der verwendeten Antikörper im RIA sind: Angiotensin I 100 %; Angiotensin II 0,0013 %; hTD (Angiotensin I-Val-Ile-His-Ser-OH) 0,09 %. Die Produktion von Angiotensin I wird durch die Differenz zwischen dem Versuch bei 37°C und demjenigen bei 4°C bestimmt.
Folgende Kontrollen werden mitgeführt: • (a) Inkubation von hTD-Proben ohne Renin und ohne Hemmer bei 37°C und 4°C. Die Differenz zwischen diesen beiden Werten ergibt den Grundwert der Angiotensin I-Produktion. • (b) Inkubation von hTD-Proben mit Renin, jedoch ohne Hemmer bei 37°C und 4°C. Die Differenz zwischen diesen Werten ergibt den Maximalwert der Angiotensin I-Produktion.
In jeder Probe wird von der ermittelten Angiotensin I-Produktion der Grundwert der Angiotensin I-Produktion abgezogen. Die Differenz zwischen dem Maximalwert und dem Grundwert ergibt den Wert der maximalen Substrathydrolyse (=100%) durch Renin.
Die Resultate werden als IC₅₀-Werte angegeben, welche diejenige Konzentration des Hemmers bezeichnen, bei welcher die enzymatische Aktivität um 50% gehemmt wird. Die IC₅₀-Werte werden aus einer linearen Regressionskurve aus einem logit-log plot ermittelt.

SMILES	IC50 [nM]
CC(C)(C)OC(=O)N1CCC[C@@H]1C(=O)N[C@@H](Cc1ccccc1)C(=O)N[C@@H](Cc1c[nH]cn1)C(=O)N[C@@H](CC1CCCCC1)C(O)CC1CCCCC1 (single isomer, unassigned) [F]	1

Same assay, conditions: pure human renin, substrate hTD, pH 7,4, incubation 3 h at 37°C vs 4°C, angiotensin I by RIA; IC50 from logit-log plot; read-out: IC₅₀-Werte

SMILES	IC50 [nM]
CCC(CC)C[C@H](O)[C@H](CC1CCCCC1)NC(=O)[C@H](Cc1c[nH]cn1)NC(=O)[C@H](Cc1ccccc1)NC(=O)[C@H]1CCCN1C(=O)OC(C)(C)C [B, t-Butyl (R)-2-[[(S)-α-[[(S)-1-[[(1S,2S)-1-(cyclohexylmethyl)-2-hydroxy-4-äthylhexyl]carbamoyl]-2-imidazol-4-yläthyl]carbamoyl]phenäthyl]carbamoyl]-1-pyrrolidincarboxylat]	1
C=C[C@H](CC)C[C@H](O)[C@H](CC1CCCCC1)NC(=O)[C@H](Cc1c[nH]cn1)NC(=O)[C@H](Cc1ccccc1)NC(=O)[C@H]1CCCN1C(=O)OC(C)(C)C [A, t-Butyl (R)-2-[[(S)-α-[[(S)-1-[[(1S,2S,4R)-1-(cyclohexylmethyl)-2-hydroxy-4-äthyl-5-hexenyl]carbamoyl]-2-imidazol-4-yläthyl]carbamoyl]phenäthyl]carbamoyl]-1-pyrrolidincarboxylat]	0.2
C=C[C@H](CC)C[C@H](O)[C@H](CC1CCCCC1)NC(=O)[C@H](Cc1c[nH]cn1)NC(=O)[C@@H](CC(=O)C(C)(C)C)Cc1ccccc1 [C, (S)-N-[(1S,2S,4R)-1-(Cyclohexylmethyl)-4-äthyl-2-hydroxy-5-hexenyl]-α-[(R)-α-(3,3-dimethyl-2-oxobutyl)hydrocinnamamido]imidazol-4-propionamid]	4.2

Second part, the compound after the results:

IC50 [nM]	SMILES
2.6	CC(C)(C)OC(=O)N[C@@H](Cc1ccccc1)C(=O)N[C@@H](Cc1c[nH]cn1)C(=O)N[C@@H](CC1CCCCC1)C(O)CC1CCCCC1 (single isomer, unassigned) [E]
1	C=C[C@H](CC)C[C@H](O)[C@H](CC1CCCCC1)NC(=O)[C@H](Cc1cnc[nH]1)NC(=O)[C@H](Cc1ccccc1)CS(=O)(=O)C(C)(C)C [D, (S)-α-[(S)-α-[(t-Butylsulfonyl)methyl]hydrocinnamamido]-N-[(1S,2S,4R)-1-(cyclohexylmethyl)-4-äthyl-2-hydroxy-5-hexenyl]imidazol-5-propionamid]
5	CCC(F)(CC)C[C@H](O)[C@H](CC1CCCCC1)NC(=O)[C@H](Cc1c[nH]cn1)NC(=O)[C@@H](CC(=O)C(C)(C)C)Cc1ccccc1 [G, (S)-N-[(1S,2S)-1-(Cyclohexylmethyl)-4-äthyl-4-fluor-2-hydroxyhexyl]-α-[(R)-α-(3,3-dimethyl-2-oxobutyl)hydrocinnamamido]imidazol-4-propionamid]
